This passage reports IC50 results from patent US9840478B2 (MERCK SHARP & DOHME CORP., priority 2013, dated 2017).

Where two headings read alike, the source gives them in different places.

The subject of this test is HIV-1 (H9IIIB strain). Description: Cell-based HIV infection assay using a reporter (Cell-Based), MT4-GFP cells. To be noted: 50% normal human serum, mean of at least two independent experiments, read-out: Cell-based IP. In a few lines: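 MT4-GFP cells (HIV LTR-driven GFP) infected 24 h with HIV-1 H9IIIB at low MOI, then washed and plated with compounds in RPMI + 50% normal human serum, 0.4% DMSO final. Green cells counted at 24 and 48 h; R0 = 48 h/24 h ratio, inhibition normalized to DMSO and triple-drug control; IC50 from 4-parameter fit.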

Where [1] appears, read: Human immunodeficiency virus 1, MT4-GFP cells infected with HIV-1 H9IIIB.

`O=C(C[C@@H](c1ccc(F)cc1)c1cc(F)cc(F)c1)Nc1cncc(F)c1CC[C@H]1CNCCN1S(=O)(=O)N1CC[C@@H](F)C1` [Example 328, (3S)-3-(3,5-difluorophenyl)-N-(5-fluoro-4-{2-[(2S)-1-{[(3S)-3-fluoropyrrolidin-1-yl]sulfonyl}piperazin-2-yl]ethyl}pyridin-3-yl)-3-(4-fluorophenyl)propanmide]: the IC50 (MT4-GFP cells infected with HIV-1 H9IIIB) is 16 nM.
Regarding `O=C(C[C@@H](c1ccc(F)cc1)c1cc(F)cc(F)c1)Nc1cncc(F)c1CC[C@H]1CNCCN1S(=O)(=O)N1CCC(F)(F)C1` [Example 329, (3S)-3-(3,5-difluorophenyl)-N-[4-(2-{(2)S-1-[(3,3-difluoropyrrolidin-1-yl)sulfonyl]piperazin-2-yl}ethyl)-5-fluoropyridin-3-yl]-3-(4-fluorophenyl)propanamide], the IC50 under setting [1] is 47 nM.
With `O=C(C[C@@H](c1ccc(F)cc1)c1cc(F)cc(F)c1)Nc1cncc(F)c1CC[C@H]1CNCCN1S(=O)(=O)N1CCC(F)(F)CC1` [Example 330, (3S)-3-(3,5-difluorophenyl)-N-[4-(2-{(2S)-1-[(4,4-difluoropiperidin-1-yl)sulfonyl]piperazin-2-yl}ethyl)-5-fluoropyridin-3-yl]-3-(4-fluorophenyl)propanamide], the IC50 under setting [1] stood at 43 nM.
Still for that read-out and setting: next, `O=C(C[C@@H](c1ccc(F)cc1)c1cc(F)cc(F)c1)Nc1cncc(F)c1CC[C@H]1CNCCN1S(=O)(=O)N1CCC(F)CC1` [Example 331, (3S)-3-(3,5-difluorophenyl)-N-[5-fluoro-4-(2-{(2S)-1-[(4-fluoropiperidin-1-yl)sulfonyl]piperazin-2-yl}ethyl)pyridin-3-yl]-3-(4-fluorophenyl)propanamide]: 19 nM.
The same measure, in the same setting: in the case of `O=C(C[C@@H](c1ccc(F)cc1)c1cc(F)cc(F)c1)Nc1cncc(F)c1CC[C@H]1CNCCN1S(=O)(=O)N1CCCC(F)(F)C1` [Example 332, (3S)-3-(3,5-difluorophenyl)-N-[4-(2-{(2S)-1-[(3,3-difluoropiperidin-1-yl)sulfonyl]piperazin-2-yl}ethyl)-5-fluoropyridin-3-yl]-3-(4-fluorophenyl)propanamide] it was 410 nM; in that of `O=C(C[C@@H](c1ccc(F)cc1)c1cc(F)cc(F)c1)Nc1cncc(F)c1CC[C@H]1CNCCN1S(=O)(=O)N1CCCC(F)C1` (stereo partly drawn) [Example 333, (3S)-3-(3,5-difluorophenyl)-N-[5-fluoro-4-(2-{(2S)-1-[(3-fluoropiperidin-1-yl)sulfonyl]piperazin-2-yl}ethyl)pyridin-3-yl]-3-(4-fluorophenyl)propanamide], 64 nM; in that of `CC(C)CC1CCCN1S(=O)(=O)N1CCNC[C@@H]1CCc1c(F)cncc1NC(=O)C[C@@H](c1ccc(F)cc1)c1cc(F)cc(F)c1` (stereo partly drawn) [Example 337, (3S)-3-(3,5-difluorophenyl)-N-(5-fluoro-4-{2-[(2S)-1-{[2-(2-methylpropyl)pyrrolidin-1-yl]sulfonyl}piperazin-2-yl]ethyl}pyridin-3-yl)-3-(4-fluorophenyl)propanamide], 130 nM.
As for `O=C(C[C@@H](c1ccc(F)cc1)c1cc(F)cc(F)c1)Nc1cncc(F)c1CC[C@H]1CNCCN1S(=O)(=O)NCC(F)CCl` (stereo partly drawn) [Example 339, (3S)-N-[4-(2-{(2S)-1-[(3-chloro-2-fluoropropyl)sulfamoyl]piperazin-2-yl}ethyl)-5-fluoropyridin-3-yl]-3-(3,5-difluorophenyl)-3-(4-fluorophenyl)propanamide], the IC50 under setting [1] was 40 nM.
With `CCN(CC)S(=O)(=O)N1CCNC[C@@H]1CCc1c(F)cncc1NC(=O)C[C@@H](c1ccc(F)cc1)c1cc(F)cc(F)c1` [Example 340, (3S)-N-(4-{2-[(2S)-1-(diethylsulfamoyl)pipera-zin-2-yl]ethyl}-5-fluoropyridin-3-yl)-3-(3,5-difluorophenyl)-3-(4-fluorophenyl)propanamide], under setting [1], the IC50 was found to be 210 nM.
For the compound `O=C(C[C@@H](c1ccc(F)cc1)c1cc(F)cc(F)c1)Nc1cncc(F)c1CC[C@H]1CNCCN1C(=O)N1CCCCC1` [Example 341, (3S)-3-(3,5-difluorophenyl)-3-(4-fluorophenyl)-N-(5-fluoro-4-{2-[(2S)-1-(piperidin-1-ylcarbonyl)piperazin-2-yl]ethyl}pyridin-3-yl)propanamide], the IC50 under setting [1] was found to be 450 nM.
For `O=C(C[C@@H](c1ccc(F)cc1)c1cc(F)cc(F)c1)Nc1cncc(F)c1CC[C@H]1CNCCN1C(=O)COc1ccccc1` [Example 343, (3S)-3-(3,5-difluorophenyl)-N-(5-fluoro-4-{2-[(2S)-1-(phenoxyacetyl)piperazin-2-yl]ethyl}pyridin-3-yl)-3-(4-fluorophenyl)propanamide], under setting [1], the IC50 was 125 nM.
Turning to `O=C(C[C@@H](c1ccc(F)cc1)c1cc(F)cc(F)c1)Nc1cncc(F)c1CC[C@H]1CNCCN1C(=O)c1ccc(OC(F)(F)F)cc1` [Example 344, (3S)-3-(3,5-difluorophenyl)-3-(4-fluorophenyl)-N-(5-fluoro-4-{2-[(2S)-1-{[4-(trifluoromethoxy)phenyl]carbonyl}piperazin-2-yl]ethyl}pyridin-3-yl)propanamide], the IC50 under setting [1] was 1800 nM.
Turning to `O=C(C[C@@H](c1ccc(F)cc1)c1cc(F)cc(F)c1)Nc1cncc(F)c1CC[C@H]1CNCCN1C(=O)c1ccc2c(c1)OC(F)(F)O2` [Example 345, (3S)-N-[4-(2-{(2S)-1-[(2,2-difluoro-1,3-benzodioxol-5-yl)carbonyl]piperazin-2-yl}ethyl)-5-fluoropyridin-3-yl]-3-(3,5-difluorophenyl)-3-(4-fluorophenyl)propanamide], under setting [1], the IC50 worked out at 1600 nM.
Same read-out and setting: in the case of `O=C(C[C@@H](c1ccc(F)cc1)c1cc(F)cc(F)c1)Nc1cncc(F)c1CC[C@H]1CNCCN1C(=O)c1cccc(OC(F)(F)F)c1` [Example 346, (3S)-3-(3,5-difluorophenyl)-3-(4-fluorophenyl)-N-(5-fluoro-4-{2-[(2S)-1-{[3-(trifluoromethoxy)phenyl]carbonyl}piperazin-2-yl]ethyl}pyridin-3-yl)propanamide] it was 860 nM.
In the case of `CC(Oc1ccccc1)C(=O)N1CCNC[C@@H]1CCc1c(F)cncc1NC(=O)C[C@@H](c1ccc(F)cc1)c1cc(F)cc(F)c1` (stereo partly drawn) [Example 347, (3S)-3-(3,5-difluorophenyl)-N-(5-fluoro-4-{2-[(2S)-1-(2-phenoxypropanoyl)piper-azin-2-yl]ethyl}pyridin-3-yl)-3-(4-fluorophenyl)propanamide], under setting [1], the IC50 was found to be 57 nM.
Still for that read-out and setting: in the case of `O=C(C[C@@H](c1ccc(F)cc1)c1cc(F)cc(F)c1)Nc1cncc(F)c1CC[C@H]1CNCCN1C(=O)CCOc1ccccc1` [Example 348, (3S)-3-(3,5-difluorophenyl)-N-(5-fluoro-4-{2-[(2S)-1-(3-phenoxypropanoyl)piper-azin-2-yl]ethyl}pyridin-3-yl)-3-(4-fluorophenyl)propanamide] it was 190 nM.
On to `CC(C)(C)c1ccc(OCC(=O)N2CCNC[C@@H]2CCc2c(F)cncc2NC(=O)C[C@@H](c2ccc(F)cc2)c2cc(F)cc(F)c2)cc1` [Example 349, (3S)-N-[4-(2-{(2S)-1-[(4-tert-butylphenoxy)acetyl]pipe-razin-2-yl}ethyl)-5-fluoropyridin-3-yl]-3-(3,5-difluorophenyl)-3-(4-fluorophenyl)propanamide], for which the IC50 under setting [1] was determined as 1500 nM.
The same measure, in the same setting: in the case of `COC(=O)N[C@H](C(=O)N[C@H]1CCC[C@@H]1CC[C@H]1CNCCN1S(=O)(=O)c1ccccc1)C(c1ccc(F)cc1)c1ccc(F)cc1` [Example 350, Methyl ((S)-1,1-bis(4-fluorophenyl)-3-oxo-3-(((1S,2R)-2-(2-((S)-1-(phenylsulfonyl)piperazin-2-yl)ethyl)cyclopentyl)amino)propan-2-yl)carbamate] it was 12 nM.
Still for that read-out and setting: in the case of `COC(=O)N[C@H](C(=O)N[C@@H]1CCC[C@H]1CC[C@H]1CNCCN1S(=O)(=O)c1ccccc1)C(c1ccc(F)cc1)c1ccc(F)cc1` [Example 351, Methyl ((S)-1,1-bis(4-fluorophenyl)-3-oxo-3-(((1R,2S)-2-(2-((S)-1-(phenylsulfonyl)piperazin-2-yl)ethyl)cyclopentyl)amino)propan-2-yl)carbamate] it was 360 nM.
On the same count and under the same terms, in the case of `COC(=O)N[C@H](C(=O)NC1CCCC1CC[C@H]1CNCCN1S(C)(=O)=O)C(c1ccc(F)cc1)c1ccc(F)cc1` (stereo partly drawn) [Example 352, 4-fluoro-beta-(4-fluorophenyl)-Nalpha-(methoxycarbonyl)-N-(2-{2-[(2S)-1-(methylsulfonyl)piperazin-2-yl]ethyl}cyclopentyl)-L-phenylalaninamide] it was 190 nM; in that of `N[C@H](C(=O)N[C@@H]1CCCC[C@H]1CC[C@H]1CNCCN1S(=O)(=O)c1ccccc1)C(c1ccc(F)cc1)c1ccc(F)cc1` [Example 353, 4-fluoro-beta-(4-fluorophenyl)-N-[(1R,2S)-2-{2-[(2S)-1-(phenylsulfonyl)piperazin-2-yl]ethyl}cyclohexyl]-L-phenylalaninamide], 540 nM.
As for `COC(=O)N[C@H](C(=O)N[C@H]1CCCC[C@@H]1CC[C@H]1CNCCN1S(=O)(=O)c1ccccc1)C(c1ccc(F)cc1)c1ccc(F)cc1` [Example 354, methyl ((S)-1,1-bis(4-fluorophenyl)-3-oxo-3-(((1S,2R)-2-(2-((S)-1-(phenylsulfonyl)piperazin-2-yl)ethyl)cyclohexyl)amino)propan-2-yl)carbamate], the IC50 under setting [1] was found to be 22 nM.
Consider `COC(=O)N[C@H](C(=O)N[C@H]1CCCC[C@@H]1CC[C@H]1CNCCN1S(=O)(=O)c1ccccc1)[C@@H](c1ccc(Cl)cc1)C1CCOCC1` [Example 355, methyl ((1R,2S)-1-(4-chlorophenyl)-3-oxo-3-(((1S,2R)-2-(2-((S)-1-(phenylsulfonyl)piperazin-2-yl)ethyl)cyclohexyl)amino)-1-(tetrahydro-2H-pyran-4-yl)propan-2-yl)carbamate], for which the IC50 under setting [1] is 14 nM.
